The record followed here is patent US12227520B2 (priority 2019, dated 2025).

As a reminder, the CC50 is the concentration at which the toxic effect on the cells reaches its halfway point.

Read-outs that look alike come from different tables or passages of the source.

One series has as its system HIV-1 (IIIB). The series can be described thus: Antiviral assay in MT-4 cells (HIV MT-4 antiviral assay). To be noted: Human immunodeficiency virus 1, IIIB, MT4, 120 h, HIV-1 (IIIB) in MT-4 cells, 5 days incubation; read-out: EC50. It is filed as cell-based. Put shortly: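 MT-4 cells infected with HIV-1 IIIB (1:250 diluted stock) and exposed to 1:3 serially diluted compound in RPMI with 10% FBS. Viability read by CellTiter-Glo luminescence after 5 days at 37° C; mock-infected cells and 5 μM AZT as controls.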

Another series relates to pLai RLuc reporter virus. The series can be described thus: microbe, parasite or virus in culture. The series is classed as cell-based, HIV. As to conditions: Human immunodeficiency virus 1, 72 h. Put shortly:
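MT-4 cells pre-infected 2 h at 37 °C with pLai RLuc virus, then exposed to 1:3 serial dilutions of compound in RPMI/10% FBS with or without 50% human serum for 72 h at 37 °C. Renilla luminescence read-out; serum shift = EC50(HS/CCM)/EC50(CCM).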

The nature of series [1]: Cytotoxicity assay in MT-4 cells. It is filed as cell-based, human. To be noted: human, uninfected MT-4 cells, 5 days incubation; read-out: CC50. Put shortly: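 Infected MT-4 cells (HIV-1 IIIB, fresh 1:250 dilution of concentrated stock) or mock-infected cells exposed to compounds for 5 days at 37 °C. Viability by CellTiter-Glo luminescence; 5 μM AZT positive control, no-drug negative control. Uninfected cells used for cytotoxicity, with 10 μM puromycin as base-level cytotoxicity control.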

The mark [2] stands for this setting: read-out: Antiviral Serum Shift RLuc 50% HS, HS/CCM (RPMI media, 10% FBS, 50% HS, 1% P/S), 72-h incubation.
Setting [3] is: read-out: Antiviral Serum Shift RLuc CCM, CCM (RPMI media, 10% FBS, 1% P/S), 72-h incubation.

As for `O=C(NCc1c(F)cc(F)cc1F)c1cn2c(c(O)c1=O)C(=O)N1C[C@H]2CCc2c(F)cccc21` [Example 43-2, (12R)-1-fluoro-7-hydroxy-6,8-dioxo-N-(2,4,6-trifluorobenzyl)-6,8,13,14-tetrahydro-12H-5,12-methanobenzo[e]pyrido[1,2-a][1,4]diazonine-9-carboxamide], the EC50 was found to be 1.57 nM in the series with HIV-1 (IIIB), 0.647 nM in the series on pLai RLuc reporter virus (setting [2]) and 0.289 nM with pLai RLuc reporter virus (setting [3]). For the same compound, in series [1], the cytotoxic concentration (CC50) at 5 days was 9150 nM.
The corresponding values for `O=C(NCc1ccc(F)cc1F)c1cn2c(c(O)c1=O)C(=O)N1CC/C=C\C[C@@H]2C1` [Example 44-1, (8R,Z)—N-(2,4-difluorobenzyl)-13-hydroxy-1,12-dioxo-1,3,4,7,8,12-hexahydro-2,8-methanopyrido[1,2-a][1,4]diazecine-11-carboxamide] are 1.71 nM, 2.33 nM, 0.677 nM and 10700 nM.
The corresponding values for `O=C(NCc1ccc(F)cc1F)c1cn2c(c(O)c1=O)C(=O)N1CC/C=C\C[C@H]2C1` [Example 44-2, (8S,Z)—N-(2,4-difluorobenzyl)-13-hydroxy-1,12-dioxo-1,3,4,7,8,12-hexahydro-2,8-methanopyrido[1,2-a][1,4]diazecine-11-carboxamide] are 2.36 nM, 36.8 nM, 0.264 nM and 15100 nM.
In the case of `O=C(NCc1c(F)cc(F)cc1F)c1cn2c(c(O)c1=O)C(=O)N1C[C@@H]2CCc2c(Cl)cccc21` [Example 45-1, (12S)-1-chloro-7-hydroxy-6,8-dioxo-N-(2,4,6-trifluorobenzyl)-6,8,13,14-tetrahydro-12H-5,12-methanobenzo[e]pyrido[1,2-a][1,4]diazonine-9-carboxamide], the EC50 in the series on HIV-1 (IIIB) was determined as 1.66 nM; in the series with pLai RLuc reporter virus (setting [2]), 2.56 nM; in the series on pLai RLuc reporter virus (setting [3]) it was 0.359 nM. Moreover, in series [1], the CC50 at 5 days worked out at 6900 nM.
In the case of `O=C(NCc1c(F)cc(F)cc1F)c1cn2c(c(O)c1=O)C(=O)N1C[C@H]2CCc2cccc(F)c21` [Example 46-2, (12R)-4-fluoro-7-hydroxy-6,8-dioxo-N-(2,4,6-trifluorobenzyl)-6,8,13,14-tetrahydro-12H-5,12-methanobenzo[e]pyrido[1,2-a][1,4]diazonine-9-carboxamide], the EC50 in the series with HIV-1 (IIIB) came to 1.41 nM; with pLai RLuc reporter virus (setting [2]), 2.91 nM; in the series with pLai RLuc reporter virus (setting [3]), 0.204 nM. Moreover, the CC50 at 5 days in series [1] was 12500 nM.
The corresponding values for `O=C(NCc1ccc(F)cc1F)c1cn2c(c(O)c1=O)C(=O)N1CC=CC[C@@H]2C1` [Example 47-1, (7R)—N-(2,4-difluorobenzyl)-12-hydroxy-1,11-dioxo-1,6,7,11-tetrahydro-3H-2,7-methanopyrido[1,2-a][1,4]diazonine-10-carboxamide] are 4.93 nM, 25.7 nM, 0.682 nM and 11100 nM.
The matching figures for `O=C(NCc1ccc(F)cc1F)c1cn2c(c(O)c1=O)C(=O)N1CC=CC[C@H]2C1` [Example 47-2, (7S)—N-(2,4-difluorobenzyl)-12-hydroxy-1,11-dioxo-1,6,7,11-tetrahydro-3H-2,7-methanopyrido[1,2-a][1,4]diazonine-10-carboxamide]: 1.16 nM, 1.01 nM, 0.247 nM and 8720 nM.
Take `O=C(NCc1c(F)cc(F)cc1F)c1cn2c(c(O)c1=O)C(=O)N1C[C@H]2CCc2cc(Cl)ccc21` [Example 48-2, (12R)-2-chloro-7-hydroxy-6,8-dioxo-N-(2,4,6-trifluorobenzyl)-6,8,13,14-tetrahydro-12H-5,12-methanobenzo[e]pyrido[1,2-a][1,4]diazonine-9-carboxamide]: the figures for the EC50 in the series on HIV-1 (IIIB), with pLai RLuc reporter virus (setting [2]) and in the series on pLai RLuc reporter virus (setting [3]) were 2.38 nM, 1.52 nM and 0.358 nM, respectively. The CC50 at 5 days in series [1] was determined as 17600 nM.
The corresponding values for `O=C(NCc1ccc(F)cc1F)c1cn2c(c(O)c1=O)C(=O)N1C[C@H]2CCc2cc(Cl)ccc21` [Example 49-2, (12R)-2-chloro-N-(2,4-difluorobenzyl)-7-hydroxy-6,8-dioxo-6,8,13,14-tetrahydro-12H-5,12-methanobenzo[e]pyrido[1,2-a][1,4]diazonine-9-carboxamide] are 2.38 nM, 1.11 nM, 0.202 nM and 7200 nM.
The corresponding values for `O=C(NCc1ccc(F)c(Cl)c1F)c1cn2c(c(O)c1=O)C(=O)N1CCCC[C@H]2C1` [Example 51, (7S)—N-(3-chloro-2,4-difluorobenzyl)-12-hydroxy-1,11-dioxo-1,4,5,6,7,11-hexahydro-3H-2,7-methanopyrido[1,2-a][1,4]diazonine-10-carboxamide] are 1.17 nM, 2.14 nM, 0.215 nM and 4390 nM.
The corresponding values for `C[C@@H]1CCC[C@H]2CN1C(=O)c1c(O)c(=O)c(C(=O)NCc3ccc(F)cc3F)cn12` [Example 52-1, (3R, 7S)—N-(2,4-difluorobenzyl)-12-hydroxy-3-methyl-1,11-dioxo-1,4,5,6,7,11-hexahydro-3H-2,7-methanopyrido[1,2-a][1,4]diazonine-10-carboxamide] are 2.15 nM, 6.18 nM, 0.245 nM and 13100 nM.
Consider `C[C@H]1CCC[C@@H]2CN1C(=O)c1c(O)c(=O)c(C(=O)NCc3ccc(F)cc3F)cn12` [Example 52-2, (3S, 7R)—N-(2,4-difluorobenzyl)-12-hydroxy-3-methyl-1,11-dioxo-1,4,5,6,7,11-hexahydro-3H-2,7-methanopyrido[1,2-a][1,4]diazonine-10-carboxamide], for which the EC50 in the series with HIV-1 (IIIB) amounted to 1.68 nM; in the series on pLai RLuc reporter virus (setting [2]), 2.19 nM; in the series with pLai RLuc reporter virus (setting [3]), 0.384 nM. Further, the CC50 at 5 days in series [1] turned out to be 5840 nM.
The corresponding values for `C[C@@H]1CCC[C@@H]2CN1C(=O)c1c(O)c(=O)c(C(=O)NCc3ccc(F)cc3F)cn12` [Example 52-3, (3R, 7R)—N-(2,4-difluorobenzyl)-12-hydroxy-3-methyl-1,11-dioxo-1,4,5,6,7,11-hexahydro-3H-2,7-methanopyrido[1,2-a][1,4]diazonine-10-carboxamide] are 3.05 nM, 114 nM, 0.589 nM and 15500 nM.
The matching figures for `C[C@H]1CCC[C@H]2CN1C(=O)c1c(O)c(=O)c(C(=O)NCc3ccc(F)cc3F)cn12` [Example 52-4, (3S, 7S)—N-(2,4-difluorobenzyl)-12-hydroxy-3-methyl-1,11-dioxo-1,4,5,6,7,11-hexahydro-3H-2,7-methanopyrido[1,2-a][1,4]diazonine-10-carboxamide]: 1.33 nM, 7.54 nM, 0.218 nM and 10300 nM.
For the compound `O=C(NCc1ccc(F)cc1F)c1cn2c(c(O)c1=O)C(=O)N1CC[C@H](F)C[C@H]2C1` [Example 56-1, (5S, 7S)—N-(2,4-difluorobenzyl)-5-fluoro-12-hydroxy-1,11-dioxo-1,4,5,6,7,11-hexahydro-3H-2,7-methanopyrido[1,2-a][1,4]diazonine-10-carboxamide], the results for the EC50 in the series on HIV-1 (IIIB), with pLai RLuc reporter virus (setting [2]) and with pLai RLuc reporter virus (setting [3]) were 3.99 nM, 1.91 nM and 0.967 nM, respectively. Also, the half-maximal cytotoxic concentration (CC50) at 5 days in series [1] was more than 39400 nM.
As to `O=C(NCc1ccc(F)cc1F)c1cn2c(c(O)c1=O)C(=O)N1CC[C@@H](F)C[C@H]2C1` [Example 56-2, (5R,7S)—N-(2,4-difluorobenzyl)-5-fluoro-12-hydroxy-1,11-dioxo-1,4,5,6,7,11-hexahydro-3H-2,7-methanopyrido[1,2-a][1,4]diazonine-10-carboxamide], the EC50 with HIV-1 (IIIB) was 1.86 nM; in the series on pLai RLuc reporter virus (setting [2]) it was 1.08 nM; in the series on pLai RLuc reporter virus (setting [3]) it was 0.401 nM. Besides, the half-maximal cytotoxic concentration (CC50) at 5 days in series [1] is 17800 nM.
The corresponding values for `O=C(NCc1ccc(F)cc1F)c1cn2c(c(O)c1=O)C(=O)N1CC[C@H](F)C[C@@H]2C1` [Example 56-3, (5S, 7R)—N-(2,4-difluorobenzyl)-5-fluoro-12-hydroxy-1,11-dioxo-1,4,5,6,7,11-hexahydro-3H-2,7-methanopyrido[1,2-a][1,4]diazonine-10-carboxamide] are 5.24 nM, 13.3 nM, 0.312 nM and 16100 nM.
The matching figures for `O=C(NCc1ccc(F)cc1F)c1cn2c(c(O)c1=O)C(=O)N1CC[C@@H](F)C[C@@H]2C1` [Example 56-4, (5R, 7R)—N-(2,4-difluorobenzyl)-5-fluoro-12-hydroxy-1,11-dioxo-1,4,5,6,7,11-hexahydro-3H-2,7-methanopyrido[1,2-a][1,4]diazonine-10-carboxamide]: 8.09 nM, 15.4 nM, 2.16 nM and 30500 nM.
